One compound from PMC12073402, “A Selective MAP3K1 Inhibitor Facilitates Discovery of NPM1 as a Member of the Network” (Molecules, 2025) can be followed below.

The inhibition is how much of the control response was suppressed. Lower therefore signals little suppression.

Common to all, as to assay: KiNativ kinome profiling in PANC-1 lysate
What all share (format): binding

The target of one experiment is T1, PIK3CB (Homo sapiens, UniProt P42338).
T1 construct: endogenous in cells; host or cells: PANC-1 cell lysate
The settings on record: ATP. In short, it runs like this:
(§1)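 PANC-1 lysates were incubated with 5 μM inhibitor or DMSO, then labeled with a desthiobiotin-ATP acyl-phosphate probe that biotinylates conserved kinase lysines. Tryptic peptides were streptavidin-enriched and quantified by LC-MS/MS, reported as % change in MS signal from duplicate treated and duplicate control samples.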

Experiment [1] deals with RSK1 domain1, RSK2 domain1, RSK3 domain1. The note with it: 5 µM; Lys2; DLKPENILLDEEGHIK
In outline:
as §1

The next experiment addresses T2, LYN (Homo sapiens, UniProt P07948).
T2 construct: endogenous in cells; host or cells: PANC-1 cell lysate
In outline: as §1

Another experiment has as its target T3, GAK (Homo sapiens, UniProt O14976).
T3 construct: endogenous in cells; host or cells: PANC-1 lysate
The settings on record: Lys2. In outline:
as §1

Another experiment deals with T4, CDK6 (Homo sapiens, UniProt Q00534).
T4 construct: endogenous in cells; host or cells: PANC-1 cell lysate
The settings on record: Lys2. In outline: as §1

Another experiment concerns the target T5, AurA (Homo sapiens, UniProt O14965).
T5 construct: endogenous in cells; host or cells: PANC-1 cell lysate
In short, it runs like this:
as §1

A further experiment has as its target T6, ACK (Homo sapiens, UniProt Q07912).
T6 construct: endogenous in cells; host or cells: PANC-1 cell lysate
In short, it runs like this: as §1

The target in a further experiment is T7, PIK3C2B (Homo sapiens, UniProt O00750).
T7 construct: endogenous in cells; host or cells: PANC-1 cell lysate
The settings on record: ATP. In short, it runs like this: as §1

T1 sequence (P42338 whole entry): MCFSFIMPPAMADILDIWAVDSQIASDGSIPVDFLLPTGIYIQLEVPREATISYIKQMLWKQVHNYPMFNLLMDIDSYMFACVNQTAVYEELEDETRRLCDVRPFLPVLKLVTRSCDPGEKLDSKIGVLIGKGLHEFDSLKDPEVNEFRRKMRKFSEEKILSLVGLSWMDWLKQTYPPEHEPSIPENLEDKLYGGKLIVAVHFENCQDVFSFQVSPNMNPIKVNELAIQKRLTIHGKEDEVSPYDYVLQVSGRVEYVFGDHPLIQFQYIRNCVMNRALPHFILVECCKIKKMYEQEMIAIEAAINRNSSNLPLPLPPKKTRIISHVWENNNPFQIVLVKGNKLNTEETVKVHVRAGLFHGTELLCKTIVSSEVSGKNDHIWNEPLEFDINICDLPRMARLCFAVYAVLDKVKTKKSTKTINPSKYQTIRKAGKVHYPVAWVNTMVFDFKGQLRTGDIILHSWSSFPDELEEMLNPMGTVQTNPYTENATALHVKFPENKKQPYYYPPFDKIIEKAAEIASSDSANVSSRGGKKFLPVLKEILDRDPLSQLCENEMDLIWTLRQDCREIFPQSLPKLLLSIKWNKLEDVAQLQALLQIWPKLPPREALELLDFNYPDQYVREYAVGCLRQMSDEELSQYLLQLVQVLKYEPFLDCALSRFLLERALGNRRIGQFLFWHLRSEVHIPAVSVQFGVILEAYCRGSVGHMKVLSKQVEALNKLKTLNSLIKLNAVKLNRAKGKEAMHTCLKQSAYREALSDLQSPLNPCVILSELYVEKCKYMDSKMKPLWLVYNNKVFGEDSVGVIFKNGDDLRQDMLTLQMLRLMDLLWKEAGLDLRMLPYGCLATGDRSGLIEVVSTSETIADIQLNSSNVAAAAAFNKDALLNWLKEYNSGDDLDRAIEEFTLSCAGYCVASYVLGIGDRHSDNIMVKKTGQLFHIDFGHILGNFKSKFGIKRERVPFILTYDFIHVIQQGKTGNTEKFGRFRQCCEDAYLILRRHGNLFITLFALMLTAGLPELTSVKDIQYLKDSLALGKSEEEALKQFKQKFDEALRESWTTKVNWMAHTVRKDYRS
T1 sequence (P27986 whole entry partner): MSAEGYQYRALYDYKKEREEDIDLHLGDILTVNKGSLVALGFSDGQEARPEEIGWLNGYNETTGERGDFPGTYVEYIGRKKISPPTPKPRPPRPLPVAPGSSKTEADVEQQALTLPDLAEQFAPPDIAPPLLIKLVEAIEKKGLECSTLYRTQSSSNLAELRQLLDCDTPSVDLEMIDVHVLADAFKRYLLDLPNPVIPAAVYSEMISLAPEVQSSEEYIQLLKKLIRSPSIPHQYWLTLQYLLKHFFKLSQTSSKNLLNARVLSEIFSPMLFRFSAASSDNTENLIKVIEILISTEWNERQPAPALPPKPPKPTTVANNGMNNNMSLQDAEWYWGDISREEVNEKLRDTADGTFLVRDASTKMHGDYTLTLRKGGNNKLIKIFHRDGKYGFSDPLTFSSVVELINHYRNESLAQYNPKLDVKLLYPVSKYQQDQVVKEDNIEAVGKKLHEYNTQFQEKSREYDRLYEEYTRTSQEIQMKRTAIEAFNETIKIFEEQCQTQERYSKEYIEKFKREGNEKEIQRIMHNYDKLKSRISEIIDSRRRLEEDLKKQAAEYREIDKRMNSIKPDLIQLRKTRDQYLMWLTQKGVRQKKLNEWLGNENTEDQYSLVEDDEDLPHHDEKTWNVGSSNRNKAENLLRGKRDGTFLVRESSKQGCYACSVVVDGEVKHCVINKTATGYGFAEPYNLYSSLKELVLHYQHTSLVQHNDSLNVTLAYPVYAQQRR
T6 sequence (Q07912 whole entry): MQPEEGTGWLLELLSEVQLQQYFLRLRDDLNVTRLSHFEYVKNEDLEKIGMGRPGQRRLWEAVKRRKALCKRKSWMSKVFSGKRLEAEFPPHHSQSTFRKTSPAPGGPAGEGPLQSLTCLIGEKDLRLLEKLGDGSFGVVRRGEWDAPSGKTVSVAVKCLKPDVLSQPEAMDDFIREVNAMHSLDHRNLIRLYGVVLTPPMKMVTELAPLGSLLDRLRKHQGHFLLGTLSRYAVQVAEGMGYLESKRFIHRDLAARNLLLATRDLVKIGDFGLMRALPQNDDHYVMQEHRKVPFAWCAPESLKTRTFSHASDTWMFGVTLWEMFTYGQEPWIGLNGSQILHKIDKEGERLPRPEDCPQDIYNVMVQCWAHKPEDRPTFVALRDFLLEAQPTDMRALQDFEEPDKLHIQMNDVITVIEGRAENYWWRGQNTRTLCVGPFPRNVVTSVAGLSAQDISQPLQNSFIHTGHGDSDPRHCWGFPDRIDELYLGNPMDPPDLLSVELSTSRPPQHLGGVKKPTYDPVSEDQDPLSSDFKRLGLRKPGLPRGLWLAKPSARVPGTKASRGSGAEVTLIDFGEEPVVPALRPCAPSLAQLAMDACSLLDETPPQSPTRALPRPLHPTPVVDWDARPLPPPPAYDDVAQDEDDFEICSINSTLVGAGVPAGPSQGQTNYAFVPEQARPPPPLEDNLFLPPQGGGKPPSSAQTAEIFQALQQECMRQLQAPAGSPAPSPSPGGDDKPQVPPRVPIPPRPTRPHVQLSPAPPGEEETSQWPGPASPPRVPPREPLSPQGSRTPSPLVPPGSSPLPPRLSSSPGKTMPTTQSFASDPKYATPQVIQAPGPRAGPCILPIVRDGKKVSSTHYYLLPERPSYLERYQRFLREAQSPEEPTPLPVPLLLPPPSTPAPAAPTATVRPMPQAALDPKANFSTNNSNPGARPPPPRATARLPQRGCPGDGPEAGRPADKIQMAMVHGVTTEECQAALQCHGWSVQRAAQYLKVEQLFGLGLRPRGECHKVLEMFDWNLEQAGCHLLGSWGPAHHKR
T2 sequence (P07948 whole entry): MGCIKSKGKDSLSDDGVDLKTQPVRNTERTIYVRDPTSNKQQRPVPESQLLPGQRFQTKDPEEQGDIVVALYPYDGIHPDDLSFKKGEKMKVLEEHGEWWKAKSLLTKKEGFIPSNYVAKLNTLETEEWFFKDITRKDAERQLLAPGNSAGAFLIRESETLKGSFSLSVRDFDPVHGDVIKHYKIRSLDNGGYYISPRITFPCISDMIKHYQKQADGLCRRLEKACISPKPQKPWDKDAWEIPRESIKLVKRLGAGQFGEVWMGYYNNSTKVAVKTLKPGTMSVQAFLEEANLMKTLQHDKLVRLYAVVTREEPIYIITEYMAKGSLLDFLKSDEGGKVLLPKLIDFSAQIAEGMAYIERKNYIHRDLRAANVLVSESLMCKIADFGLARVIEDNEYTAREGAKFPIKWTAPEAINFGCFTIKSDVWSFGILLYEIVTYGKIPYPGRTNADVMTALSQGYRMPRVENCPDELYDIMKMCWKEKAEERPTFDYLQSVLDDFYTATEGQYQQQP
T5 sequence (O14965 whole entry): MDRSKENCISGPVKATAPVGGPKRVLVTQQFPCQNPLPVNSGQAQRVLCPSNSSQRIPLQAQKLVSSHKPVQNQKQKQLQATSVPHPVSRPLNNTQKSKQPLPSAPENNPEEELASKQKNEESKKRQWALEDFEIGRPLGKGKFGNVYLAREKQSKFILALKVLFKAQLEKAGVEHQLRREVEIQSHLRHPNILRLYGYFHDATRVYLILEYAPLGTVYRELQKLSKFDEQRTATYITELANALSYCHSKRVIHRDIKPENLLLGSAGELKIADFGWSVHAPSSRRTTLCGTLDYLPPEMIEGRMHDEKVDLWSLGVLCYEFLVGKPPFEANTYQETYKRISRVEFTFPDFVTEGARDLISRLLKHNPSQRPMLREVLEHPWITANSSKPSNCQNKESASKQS
T3 sequence (O14976 whole entry): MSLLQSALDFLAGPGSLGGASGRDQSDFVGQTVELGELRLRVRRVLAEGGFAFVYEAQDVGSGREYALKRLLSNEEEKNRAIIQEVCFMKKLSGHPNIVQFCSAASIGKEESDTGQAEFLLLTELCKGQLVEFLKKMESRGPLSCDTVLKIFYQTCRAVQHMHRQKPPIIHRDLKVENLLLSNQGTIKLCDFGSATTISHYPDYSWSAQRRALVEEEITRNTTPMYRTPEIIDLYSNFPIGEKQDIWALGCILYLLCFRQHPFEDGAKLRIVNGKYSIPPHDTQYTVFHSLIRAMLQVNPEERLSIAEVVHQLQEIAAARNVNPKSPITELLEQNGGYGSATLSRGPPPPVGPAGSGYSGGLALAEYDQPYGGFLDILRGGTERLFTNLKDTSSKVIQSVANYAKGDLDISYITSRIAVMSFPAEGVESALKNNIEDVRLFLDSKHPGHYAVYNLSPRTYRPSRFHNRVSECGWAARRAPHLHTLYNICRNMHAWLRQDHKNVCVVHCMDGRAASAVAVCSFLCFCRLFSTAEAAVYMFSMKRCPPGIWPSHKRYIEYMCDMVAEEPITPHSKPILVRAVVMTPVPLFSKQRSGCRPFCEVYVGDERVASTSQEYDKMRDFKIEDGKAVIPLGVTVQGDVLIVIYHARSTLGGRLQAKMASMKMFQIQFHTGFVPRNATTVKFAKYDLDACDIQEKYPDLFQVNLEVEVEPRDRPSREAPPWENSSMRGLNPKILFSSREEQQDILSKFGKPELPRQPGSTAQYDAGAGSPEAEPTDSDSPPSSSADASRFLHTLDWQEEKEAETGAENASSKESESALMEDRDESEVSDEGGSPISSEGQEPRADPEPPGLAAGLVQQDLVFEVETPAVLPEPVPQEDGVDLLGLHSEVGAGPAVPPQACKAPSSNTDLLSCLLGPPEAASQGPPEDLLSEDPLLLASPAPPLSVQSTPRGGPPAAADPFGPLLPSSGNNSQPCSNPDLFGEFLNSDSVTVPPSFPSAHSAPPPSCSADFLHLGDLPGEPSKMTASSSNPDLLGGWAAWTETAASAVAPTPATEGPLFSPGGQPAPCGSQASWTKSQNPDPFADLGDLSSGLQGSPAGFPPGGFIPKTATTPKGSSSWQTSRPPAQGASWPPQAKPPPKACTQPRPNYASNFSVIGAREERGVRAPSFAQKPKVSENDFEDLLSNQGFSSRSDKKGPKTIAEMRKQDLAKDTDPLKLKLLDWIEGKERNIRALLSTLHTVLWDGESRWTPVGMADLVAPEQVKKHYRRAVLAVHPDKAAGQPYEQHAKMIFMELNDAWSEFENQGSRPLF

Consider `Cn1cc(-c2cnc3ccc(NC(=O)Nc4ccc(F)c(C(F)(F)F)c4)cc3n2)cn1` [51-106, 1-(4-Fluoro-3-(trifluoromethyl)phenyl)-3-(3-(1-methyl-1H-pyrazol-4-yl)quinoxalin-6-yl)urea], for which the inhibition at 5 µM on PIK3CB (VFGEDSVGVIFKNGDDLR) is 1.7%; against PIK3CB (VFGEDSVGVIFKNGDDLRQDMLTLQMLR), 31.4%; on LYN (ATP Loop, EGAKFPIKWTAPEAINFGCFTIK), not above 0%; against LYN (Lys1, VAVKTLKPGTMSVQAFLEEANLMK), 1.8%; at GAK it was 1%; against CDK6 it was not above 0%. For the same compound, the inhibition at 5 µM is not above 0% on AurA (Lys1, […]); not above 0% against ACK (Lys1, […]); 2.9% against PIK3C2B. The “% Inhibition” value in experiment [1] is recorded as “NB (NB = No Binding (≤ 0))”; on AurA (5 µM, Lys2, DIKPENLLLGSAGELK), “NB (NB = No Binding (≤ 0))”; at ACK (5 µM, Activation Loop, KVPFAWCAPESLK), “NB (NB = No Binding (≤ 0))”.
